Data as given in ChEMBL document CHEMBL1201862, “PubChem BioAssay data set” (2004).
Activity calls are given as the source filed them.

Experiments:
Major prion protein = Major prion protein (Homo sapiens, UniProt P04156); format: functional, cell-based
[1] = molecular target: T1, Probable nicotinate-nucleotide adenylyltransferase (Staphylococcus aureus (strain N315), UniProt P65502); format: functional, Staphylococcus aureus subsp. aureus N315;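 as to IC50 Mean: confirmatory dose-response retesting of NadD inhibitor hits first found in an ultra-high-throughput screen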
T1 sequence (P65502 whole entry, the tested form may be a part): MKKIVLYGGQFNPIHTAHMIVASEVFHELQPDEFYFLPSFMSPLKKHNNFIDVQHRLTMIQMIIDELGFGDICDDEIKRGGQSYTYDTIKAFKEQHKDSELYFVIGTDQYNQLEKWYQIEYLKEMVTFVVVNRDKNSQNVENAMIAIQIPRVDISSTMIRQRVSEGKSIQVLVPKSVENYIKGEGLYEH

[2] = molecular target: T2, RNA-binding protein pos-1 (Caenorhabditis elegans, UniProt G5EF15); test: inhibitors of POS-1/mex-3 RNA binding, dose response, biochemical, fluorescence polarization (AID 1964);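 also: purified POS-1 fused to maltose binding protein made in E. coli; potency of compounds blocking POS-1 binding to fluorescent RNA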
T2 sequence (G5EF15 whole entry): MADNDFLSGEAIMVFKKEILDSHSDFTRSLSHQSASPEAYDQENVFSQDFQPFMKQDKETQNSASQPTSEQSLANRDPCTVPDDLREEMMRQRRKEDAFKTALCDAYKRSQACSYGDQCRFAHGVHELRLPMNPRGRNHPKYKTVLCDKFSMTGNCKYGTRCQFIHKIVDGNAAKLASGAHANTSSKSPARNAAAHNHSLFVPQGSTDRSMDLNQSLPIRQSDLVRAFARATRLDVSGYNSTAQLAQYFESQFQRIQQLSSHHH

Streptokinase A = molecular target: T3, Streptokinase A (Streptococcus pyogenes serotype M1, UniProt P10520); test: S. pyogenes streptokinase expression inhibitors, potency, dose response, plasminogen activation absorbance, OD405 (AID 1914); format: functional, Streptococcus pyogenes M1 GAS;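 also: secreted streptokinase activity via plasminogen activation per viability signal from cell pellet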
T3 sequence (P10520 whole entry): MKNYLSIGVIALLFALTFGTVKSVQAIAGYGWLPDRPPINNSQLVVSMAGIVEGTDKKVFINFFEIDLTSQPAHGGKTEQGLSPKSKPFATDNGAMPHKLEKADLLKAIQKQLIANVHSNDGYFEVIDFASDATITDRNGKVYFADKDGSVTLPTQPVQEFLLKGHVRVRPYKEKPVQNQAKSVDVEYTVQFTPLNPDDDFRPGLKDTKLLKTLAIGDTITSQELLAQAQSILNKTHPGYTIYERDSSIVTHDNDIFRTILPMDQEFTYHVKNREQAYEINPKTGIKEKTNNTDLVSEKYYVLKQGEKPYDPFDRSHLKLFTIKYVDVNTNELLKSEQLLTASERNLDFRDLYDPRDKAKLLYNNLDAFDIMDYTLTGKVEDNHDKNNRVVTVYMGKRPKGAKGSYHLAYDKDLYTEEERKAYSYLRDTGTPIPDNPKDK

[3] = molecular target: T1, Probable nicotinate-nucleotide adenylyltransferase; format: functional, Staphylococcus aureus subsp. aureus N315; details: read-out: IC50_Mean
[4] = molecular target: T4, Rac GTPase-activating protein 1 (Homo sapiens, UniProt Q9H0H5); test: MgcRacGAP GTPase-activating activity inhibitors, confirmation, biochemical, ADP Hunter fluorescence, primary and confirmatory (AID 624330); format: functional
T4 sequence (Q9H0H5 whole entry): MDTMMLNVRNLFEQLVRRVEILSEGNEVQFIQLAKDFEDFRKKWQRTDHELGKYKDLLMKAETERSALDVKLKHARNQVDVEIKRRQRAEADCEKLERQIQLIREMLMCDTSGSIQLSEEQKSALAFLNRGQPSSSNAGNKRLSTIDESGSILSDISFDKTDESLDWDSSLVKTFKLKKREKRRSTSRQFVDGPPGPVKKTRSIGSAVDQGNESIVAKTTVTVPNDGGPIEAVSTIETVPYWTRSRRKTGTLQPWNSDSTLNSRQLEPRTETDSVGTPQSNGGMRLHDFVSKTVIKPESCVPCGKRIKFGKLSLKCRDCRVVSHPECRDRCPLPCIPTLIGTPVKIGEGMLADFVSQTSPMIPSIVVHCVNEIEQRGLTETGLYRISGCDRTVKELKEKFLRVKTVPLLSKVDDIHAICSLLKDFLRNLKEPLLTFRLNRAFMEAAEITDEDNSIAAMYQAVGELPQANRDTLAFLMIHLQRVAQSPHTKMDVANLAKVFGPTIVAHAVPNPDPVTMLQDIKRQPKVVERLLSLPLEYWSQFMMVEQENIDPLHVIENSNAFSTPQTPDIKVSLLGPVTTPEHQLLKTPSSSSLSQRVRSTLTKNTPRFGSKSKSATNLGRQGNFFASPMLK

[5] = molecular target: T5, Zinc finger protein mex-5 (Caenorhabditis elegans, UniProt Q9XUB2); test: MEX-5/TCR-2 RNA interaction inhibitors, dose response, biochemical, C. elegans, fluorescence polarization (AID 1960)
T5 sequence (Q9XUB2 whole entry): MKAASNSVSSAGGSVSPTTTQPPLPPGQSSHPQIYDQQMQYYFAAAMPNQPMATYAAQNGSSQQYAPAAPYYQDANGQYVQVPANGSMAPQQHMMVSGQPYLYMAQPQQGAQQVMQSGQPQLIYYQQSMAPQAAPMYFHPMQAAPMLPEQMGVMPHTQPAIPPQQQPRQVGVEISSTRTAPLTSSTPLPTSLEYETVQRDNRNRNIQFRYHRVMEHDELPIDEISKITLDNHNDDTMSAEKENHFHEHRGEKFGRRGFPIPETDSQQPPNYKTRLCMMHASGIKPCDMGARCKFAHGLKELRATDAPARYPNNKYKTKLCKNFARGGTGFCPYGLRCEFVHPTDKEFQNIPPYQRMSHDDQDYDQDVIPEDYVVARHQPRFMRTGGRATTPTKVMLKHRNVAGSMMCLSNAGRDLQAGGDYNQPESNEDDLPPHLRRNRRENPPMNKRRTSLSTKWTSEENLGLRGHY

[6] = tested on: Streptococcus sp. 'group A'; test: growth inhibition of control SK(-) GAS strain, dose response, counter-screen for streptokinase expression inhibitor project, luminescence, kanamycin, BacTiterGlo, confirmation (AID 1900); format: functional, organism-based
Streptococcus = test: Group A Streptococcus viability loss, dose response, counter-screen for streptokinase expression inhibitor project, luminescence, BacTiterGlo (AID 1915); format: functional, organism-based;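 also: potency for reduction of bacterial viability or growth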
BJ [7] = test: cytotoxicity toward BJ-TERT-LT-ST fibroblasts, dose response, cell-based, RAS-independent, luminescence (AID 1935); format: functional; details: Homo sapiens;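 also: BJ fibroblasts immortalized with TERT plus LT and ST oncogenes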
BJ [8] = test: cells; format: functional, cell-based; details: Homo sapiens
[9] = molecular target: T6, Replicative DNA helicase DnaB (Mycobacterium tuberculosis, UniProt P9WMR3); test: DnaB intein splicing inhibitors, dose response, biochemical, cell-free fluorescence (AID 449749); format: functional
T6 sequence (P9WMR3 whole entry): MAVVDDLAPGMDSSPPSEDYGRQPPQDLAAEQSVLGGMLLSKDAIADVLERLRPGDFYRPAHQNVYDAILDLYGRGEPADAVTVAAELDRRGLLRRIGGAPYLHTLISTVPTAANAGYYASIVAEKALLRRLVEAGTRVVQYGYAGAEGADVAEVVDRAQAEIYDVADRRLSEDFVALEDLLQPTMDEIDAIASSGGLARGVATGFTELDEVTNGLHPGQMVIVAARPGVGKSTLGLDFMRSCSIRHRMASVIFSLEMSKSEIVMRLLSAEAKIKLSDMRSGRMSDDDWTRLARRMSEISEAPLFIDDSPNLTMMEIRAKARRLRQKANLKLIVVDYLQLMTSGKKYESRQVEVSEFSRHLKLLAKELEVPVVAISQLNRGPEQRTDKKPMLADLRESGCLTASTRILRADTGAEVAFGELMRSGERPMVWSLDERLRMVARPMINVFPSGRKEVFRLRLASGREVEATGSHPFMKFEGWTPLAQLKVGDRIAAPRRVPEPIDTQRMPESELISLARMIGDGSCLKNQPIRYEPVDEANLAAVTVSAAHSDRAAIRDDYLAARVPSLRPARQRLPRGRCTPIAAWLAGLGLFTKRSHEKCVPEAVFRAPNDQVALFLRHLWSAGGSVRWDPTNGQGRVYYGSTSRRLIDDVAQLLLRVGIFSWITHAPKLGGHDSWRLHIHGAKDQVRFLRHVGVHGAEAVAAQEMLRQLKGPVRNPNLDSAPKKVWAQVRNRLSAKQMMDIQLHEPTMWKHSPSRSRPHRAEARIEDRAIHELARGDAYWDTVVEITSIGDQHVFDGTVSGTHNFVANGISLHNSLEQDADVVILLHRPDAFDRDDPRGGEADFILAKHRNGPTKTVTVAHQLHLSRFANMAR

Paired box protein Pax-8 = Paired box protein Pax-8 (Homo sapiens, UniProt Q06710); test: inhibitors of PAX8-driven TPO luciferase reporter, dose response, RMG-I cells, cherry-pick (AID 687027); format: functional, cell-based;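 also: luciferase reporter driven by Pax8 target thyroperoxidase promoter measured by SteadyGlo luminescence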
Chain of Paired box protein Pax-8 (Q06710 whole entry): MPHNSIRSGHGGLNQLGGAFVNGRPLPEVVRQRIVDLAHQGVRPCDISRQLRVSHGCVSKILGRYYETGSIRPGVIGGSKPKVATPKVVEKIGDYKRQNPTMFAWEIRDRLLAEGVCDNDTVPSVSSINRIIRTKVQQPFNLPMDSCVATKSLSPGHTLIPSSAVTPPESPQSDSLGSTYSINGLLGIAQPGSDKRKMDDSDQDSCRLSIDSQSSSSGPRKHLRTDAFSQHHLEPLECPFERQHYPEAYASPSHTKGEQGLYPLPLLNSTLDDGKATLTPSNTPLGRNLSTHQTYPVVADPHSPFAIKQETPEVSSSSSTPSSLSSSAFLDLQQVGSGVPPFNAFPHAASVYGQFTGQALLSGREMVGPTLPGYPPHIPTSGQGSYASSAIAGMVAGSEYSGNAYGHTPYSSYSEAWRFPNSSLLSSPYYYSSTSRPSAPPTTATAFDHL

[10] = cytotoxicity toward DRD oncogenic fibroblasts, dose response, cell-based, non-viral oncogenic, luminescence (AID 1934); format: functional; details: Homo sapiens
Protein RecA = molecular target: T7, Protein RecA (Mycobacterium tuberculosis, UniProt P9WHJ3); test: Fluorescence Cell-Free Homogeneous Dose Retest to Identify Inhibitors of RecA-Intein Splicing Activity. [Related pubchem assays (depositor defined):AID2097, AID2223, AID489010, AID492950]; format: functional
T7 sequence (P9WHJ3 whole entry): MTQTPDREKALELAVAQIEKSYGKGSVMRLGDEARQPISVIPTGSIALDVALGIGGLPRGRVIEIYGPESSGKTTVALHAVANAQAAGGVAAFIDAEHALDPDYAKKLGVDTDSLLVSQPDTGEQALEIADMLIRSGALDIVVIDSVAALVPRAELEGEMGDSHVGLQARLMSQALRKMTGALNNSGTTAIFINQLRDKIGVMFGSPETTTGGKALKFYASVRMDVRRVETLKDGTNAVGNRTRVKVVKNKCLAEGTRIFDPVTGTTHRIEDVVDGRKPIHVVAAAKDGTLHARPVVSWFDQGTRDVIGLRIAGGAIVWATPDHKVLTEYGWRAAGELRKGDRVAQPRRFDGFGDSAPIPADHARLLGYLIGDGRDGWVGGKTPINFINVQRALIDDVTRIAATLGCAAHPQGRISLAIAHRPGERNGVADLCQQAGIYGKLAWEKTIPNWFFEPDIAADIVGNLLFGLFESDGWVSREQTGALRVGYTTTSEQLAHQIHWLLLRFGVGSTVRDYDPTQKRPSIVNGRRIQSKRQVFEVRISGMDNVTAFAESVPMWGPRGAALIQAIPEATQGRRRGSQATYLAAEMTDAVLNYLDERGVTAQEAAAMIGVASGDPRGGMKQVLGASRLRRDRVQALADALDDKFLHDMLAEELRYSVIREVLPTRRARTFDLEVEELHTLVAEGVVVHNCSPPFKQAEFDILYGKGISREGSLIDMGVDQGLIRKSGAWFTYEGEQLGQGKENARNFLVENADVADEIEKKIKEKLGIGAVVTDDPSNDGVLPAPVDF

[11] = cytotoxicity toward NIH3T3 fibroblasts, dose response, counter-screen, cell-based, ATP luminescence, mouse fibroblasts (AID 2010); format: functional;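 also: cells exposed to compound for about 90 hours before reading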
[12] = inhibitors of intracellular T. cruzi replication, confirmation, NIH3T3 host cells, beta-gal luminescence (AID 2044); format: functional, cell-based;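 also: intracellular parasites grown in NIH/3T3 mouse fibroblasts as host cells; luminescent beta-galactosidase reporter signal from transgenic T. cruzi replicating inside host cells; inhibitors lower the luminescence signal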
BJ [13] = test: cytotoxicity toward BJ-TERT fibroblasts, dose response, cell-based, RAS-independent, luminescence (AID 1933); format: functional; details: Homo sapiens
[14] = non-specific cell cytotoxicity, dose response, cytotoxicity control for PAX8 inhibitor project, plate reader, dry powder samples (AID 743021); format: functional, cell-based
[15] = miR-122 activators in hepatoma reporter cells, dose response, cell-based, Huh7 psiCHECK-miR122, Renilla luciferase, cherry-picked (AID 651956); format: functional;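 also: huh7 hepatoma cells stably carrying a psiCHECK-2 miR-122 sensor plasmid; renilla luciferase signal reporting endogenous miR-122 activity after 48 h compound exposure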
[16] = HEK293T cytotoxicity, dose response, cytotoxicity control for miR-122 modulator project, cell-based, inhibitor set, cherry-pick, set 2 (AID 720697); format: functional
[17] = cytotoxicity in OVCAR8 ovarian cancer cells, dose response, PAX8 project, cell-based, plate reader, dry powder samples (AID 743197); format: functional; details: OVCAR-8
[18] = NIH:OVCAR-3 ovarian cancer cell cytotoxicity, dose response, PAX8 inhibitor project, plate reader, dry powder samples (AID 743044); format: functional, cell-based
[19] = IGROV1 ovarian cancer cell cytotoxicity, dose response, PAX8 inhibitor project, plate reader, dry powder samples (AID 743043); format: functional, cell-based; details: IGROV-1
[20] = molecular target: T8, Small ubiquitin-related modifier 1 (Homo sapiens, UniProt P63165); test: inhibitors of SUMO1 peptide binding, dose response, biochemical, fluorescence polarization, uHTS hits (AID 624382); format: functional; details: read-out: IC50_Mean
T8 sequence (P63165 whole entry): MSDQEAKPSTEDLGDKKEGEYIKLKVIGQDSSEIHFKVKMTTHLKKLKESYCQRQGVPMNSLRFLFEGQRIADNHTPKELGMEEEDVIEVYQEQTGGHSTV

[21] = molecular target: T8, Small ubiquitin-related modifier 1; test: inhibitors of SUMO1 partner interactions, dose response, biochemical, FRET (AID 624383); format: functional; details: read-out: IC50_Mean

## COc1ccccc1Cn1c(=S)[nH]c2ccc(F)cc2c1=O
Major prion protein
  IC50: 0.412 µM (active)
cells
  IC50: > 138 µM (inactive)

## CC(C)(C)C(=O)NNC(=O)COc1ccc2ccccc2c1Br
Major prion protein
  IC50: 4.91 µM (active)
cells
  IC50: > 138 µM (inactive)

## Cc1cccc2sc(NNC(=O)c3cc(=O)c4ccccc4o3)nc12
[1]
  IC50: 5.9 µM (active)
[2]
  EC50: > 300 µM (not active)
Streptokinase A
  EC50: > 150 µM (not active)
[3]
  IC50: 35.2 µM (active)
[4]
  IC50: 94 µM (active)
[5]
  EC50: > 300 µM (not active)
[6]
  EC50: 0.449 µM (active)
Streptococcus
  EC50: 7.43 µM (active)

## CC(C)N(CC(=O)Nc1ccc(Cl)cc1C(F)(F)F)C(=O)CCl
BJ [7]
  EC50: > 150 µM (inconclusive)
BJ [8]
  EC50: 16.9 µM (active)
[9]
  AC50: < 0.018 µM (inconclusive)
Paired box protein Pax-8
  AC50: 5.06 µM (active)
[10]
  EC50: 6.62 µM (active)
Protein RecA
  EC50: 6.09 µM (active)
[11]
  EC50: 11.9 µM (active)
[12]
  EC50: 3.38 µM (active)
BJ [13]
  EC50: 6.85 µM (inconclusive)
[14]
  AC50: 10 µM (active)

## COc1ccc(-c2ccc3c(c2)O[C@H](CN(C)C(=O)Nc2ccccc2F)[C@H](C)CN([C@@H](C)CO)S3(=O)=O)cc1
[15]
  AC50: 9.32 µM (active)
[16]
  AC50: 0.5 µM (active)

## CNC(=O)C[C@H]1CC[C@@H]2[C@H](COc3ccc(NS(=O)(=O)c4ccc(F)cc4)cc3C(=O)N2C)O1
[15]
  AC50: 47.9 µM (active)

## COc1ccc(CN(C)C[C@H]2OCCCC[C@@H](C)Oc3ccc(NC(=O)Nc4ccc(F)cc4)cc3C(=O)N([C@@H](C)CO)C[C@@H]2C)cc1
[17]
  AC50: > 70 µM (inactive)
[18]
  AC50: 33.8 µM (active)
Paired box protein Pax-8
  AC50: 21.7 µM (active)
[14]
  AC50: 51.9 µM (active)

## C[C@@H]1CCCCO[C@@H](CN(C)C(=O)Nc2ccc(C(F)(F)F)cc2)[C@H](C)CN([C@H](C)CO)C(=O)c2cc(NS(=O)(=O)c3cccs3)ccc2O1
[17]
  AC50: 39.4 µM (active)
[18]
  AC50: 20 µM (active)
Paired box protein Pax-8
  AC50: 8.64 µM (active)
[19]
  AC50: 45.5 µM (active)

## O=C(N/N=C/c1cccnc1)c1cccc(NC(=O)c2ccc(Cl)cc2)c1
[20]
  IC50: > 66.6 µM (inactive)
[21]
  IC50: 5.33 µM (active)
